# Read-outs that look alike come from different tables or passages of the source.
# How the values were obtained:
# [1] = system: hepatic ischaemia-reperfusion injury in C57BL/6J mice; experiment: Mouse model of hepatic ischaemia-reperfusion injury; type: in vivo; details: 50 mg/kg osmotic pump, 1 h ischaemia, 6 h reperfusion
# Protocol: Mice (10–12 weeks-old) were anesthetised with isoflurane and subcutaneously implanted with Alzet® osmotic pump containing C105SR (50 mg/kg) or vehicle 24 h before the surgical procedure. The mice were anesthetised with isoflurane and subjected to partial hepatic ischaemia by clamping the hepatic artery and portal vein for 60 min, followed by 6 h of reperfusion induced by removal of the clamp. The sham-operated group underwent laparotomy without vascular occlusion.
# Briefly, 70% of the liver was subjected to 1 h of ischaemia followed by 6 h of reperfusion, as recently described.[16] C105SR was administered using osmotic pumps at a dose of 50 mg/kg.
# Mouse serum analysis. Blood was collected at 6 h of reperfusion. Alanine aminotransferase (ALT) and aspartate aminotransferase (AST) activities were measured on an automated analyzer in the Biochemistry Department of Henri Mondor Hospital.
# Histological Analysis. Hematoxylin and eosin staining was performed on 4-μm thick formalin-fixed paraffin-embedded tissue sections. Slides were scanned at x20 magnification using a virtual slide scanning system (Axio scan7/ZEN slidescan). Necrosis areas were quantified with […]
# TUNEL Assay. Terminal deoxynucleotidyl-transferase (TdT) dUTP Nick-End Labeling (TUNEL) was performed on formalin-fixed paraffin-embedded tissue sections using a commercial kit (Abcam, Cambridge, United Kingdom) following the manufacturer’s instructions. The number of TUNEL-positive cells were quantified using QuPath on slides scanned at x20 magnification using a virtual slide scanning system (Axio scan7/ZEN slidescan).
# Caspase 3/7 activity assay. Caspase 3/7 activity was assessed using the commercially Caspase-Glo® 3/7 assay (Promega, Madison, Wisconsin) following the manufacturer’s instructions.
# Briefly, Caspase-Glo® 3/7 Reagent was incubated with the cells and the caspase3/7 activity was determined by measuring luminescence with a luminometer (Berthold). Caspase3/7 activity was expressed as a percentage of the untreated control.
# In silico modeling and docking. […]
# [2] = Plasmatic and hepatic concentration of C105SR in mice; type: in vivo; details: sc, mouse, 50 mg/kg by subcutaneous osmotic pump
# Protocol: Briefly, 70% of the liver was subjected to 1 h of ischaemia followed by 6 h of reperfusion, as recently described.[16] C105SR was administered using osmotic pumps at a dose of 50 mg/kg. […]
# simulation was performed using @TOME‐2 server with no constraint. The images were generated using PyMOL and MarvinSketch.
# Determination of plasmatic and hepatic concentration of C105SR. Mice (10-12 weeks-old, n=6) were anesthetized with isoflurane and subcutaneously implanted with Alzet® osmotic pump containing C105SR (50 mg/kg) or vehicle. 24h after, the blood and the liver were collected. C105SR in plasma and liver homogenates was extracted with cold acetonitrile containing 0.1% of acetic acid and centrifugation at 13,000 x g for 10 min at 4 °C. C105SR dosage was carried out by tandem mass spectrometric detection with a TSQ QUANTIS® mass spectrometer (ThermoFisher Scientific, Villebon-sur-Yvette, France), with an electrospray ionization source (ESI) which was set in positive electro-spray ionization (ESI+). The acquired data were processed using Trace Finder® software version 4.1 (Thermo Fisher Scientific, Villebon-sur-Yvette, France). Optimization of the MS conditions has been performed by single direct infusion of reference standards of the analyte. Two […]
smiles,measurement,setting,value
"COc1ccc(Br)cc1[C@H](NC(=O)NCc1ccc2c(c1)CCCN2)C(=O)N1CCC[C@@H]1c1cccc2ccsc12 [Compound C105SR, 1-((S)-2-((R)-2-(benzo[b]thiophen-7-yl)pyrrolidin-1-yl)-1-(5-bromo-2-methoxyphenyl)-2-oxoethyl)-3-((1,2,3,4-tetrahydroquinolin-6-yl)methyl)urea]",hepatocyte necrosis (histology),[1],significantly protected
same,serum ALT and AST levels,[1],significantly protected
same,number of TUNEL-positive apoptotic cells,[1]; vs vehicle,significantly reduced
same,concentration at 24 h,"[2]; liver, read-out: hepatic concentration",~30 nM
same,concentration at 24 h,"[2]; plasma, read-out: plasmatic concentration",~30 nM

# — paper PMC10582583, “The novel cyclophilin inhibitor C105SR reduces hepatic ischaemia–reperfusion injury via mitoprotection” (JHEP Reports, 2023)
